In test [1] the target is T1, NLRP3 (Homo sapiens, UniProt Q96P20). The experiment in a line: Human whole blood IL1β release assay. The class given is cell-based. Also noted: Human whole blood in Li-heparin tubes was obtained from healthy donors; from tissue; host or cells: human whole blood from healthy donors, LPS-primed, nigericin-stimulated. As to the method: Human Whole Blood IL1β Release Assay
For systemic delivery, the ability to inhibit NLRP3 when the compounds are present within the bloodstream is of great importance. For this reason, the NLRP3 inhibitory activity of a number of compounds in human whole blood was investigated in accordance with the following protocol.
Human whole blood in Li-heparin tubes was obtained from healthy donors from a volunteer donor panel. • 1. Plate out 80 μl of whole blood containing 1 μg/ml of LPS in 96-well, clear bottom cell culture plate (Corning #3585) • 2. Add 10 μl compound (8 points half-log dilution with 10 μM top dose) or vehicle (DMSO 0.1% FAC) to the appropriate wells • 3. Incubate for 3 hrs at 37° C., 5% CO2 • 4. Add 10 μl Nigericin (Sigma #N7143) (10 μM FAC) to all wells • 5. Incubate for 1 hr at 37° C., 5% CO2 • 6. At the end of the incubation period, spin plates at 300 xg for 5 mins to pellet cells and remove 20 μl of supernatant and add to 96-well v-bottom plates for IL-1β analysis (note: these plates containing the supernatants can be stored at −80° C. to be analysed at a later date) • 7. IL-1β was measured according to the manufacturer protocol (Perkin Elmer-AlphaLisa IL-1 Kit AL220F-5000) • 8. IC50 data is fitted to a non-linear regression equation (log inhibitor vs response-variable slope 4-parameters)

The target in test [2] is T1, NLRP3. The experiment in a line: THP-1 cells pyroptosis assay. The class given is cell-based. On the set-up: Seed THP-1 cells (25,000 cells/well) containing 1.0 μg/ml LPS; host or cells: THP-1 cells, LPS-primed, nigericin-stimulated. Put shortly:
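THP-1 cells (25,000/well) in serum-free RPMI with 1.0 μg/ml LPS, treated with compound (8-point half-log dilution, 10 μM top, 0.1% DMSO), then nigericin 5 μM final. Viability read by resazurin (100 μM final, 1-2 h, 37° C) fluorescence Ex 560/Em 590 nm; IC50 from 4-parameter variable-slope fit.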

[3] abbreviates: human whole blood, 1 μg/ml LPS, compound 3 hrs, nigericin 10 μM 1 hr, IL-1β AlphaLisa, read-out: HWB IC50.
Setting [4] is: THP-1 cells, 1.0 μg/ml LPS, compound 3 hrs, nigericin 5 μM 1 hr, resazurin readout, read-out: THP IC50.

Counter-ions that a name gives are not always drawn. A value given as a limit tells only on which side of the number the result lay.

Broadly, the IC50 is the midpoint of a concentration-inhibition curve.

T1 sequence (Q96P20 whole entry): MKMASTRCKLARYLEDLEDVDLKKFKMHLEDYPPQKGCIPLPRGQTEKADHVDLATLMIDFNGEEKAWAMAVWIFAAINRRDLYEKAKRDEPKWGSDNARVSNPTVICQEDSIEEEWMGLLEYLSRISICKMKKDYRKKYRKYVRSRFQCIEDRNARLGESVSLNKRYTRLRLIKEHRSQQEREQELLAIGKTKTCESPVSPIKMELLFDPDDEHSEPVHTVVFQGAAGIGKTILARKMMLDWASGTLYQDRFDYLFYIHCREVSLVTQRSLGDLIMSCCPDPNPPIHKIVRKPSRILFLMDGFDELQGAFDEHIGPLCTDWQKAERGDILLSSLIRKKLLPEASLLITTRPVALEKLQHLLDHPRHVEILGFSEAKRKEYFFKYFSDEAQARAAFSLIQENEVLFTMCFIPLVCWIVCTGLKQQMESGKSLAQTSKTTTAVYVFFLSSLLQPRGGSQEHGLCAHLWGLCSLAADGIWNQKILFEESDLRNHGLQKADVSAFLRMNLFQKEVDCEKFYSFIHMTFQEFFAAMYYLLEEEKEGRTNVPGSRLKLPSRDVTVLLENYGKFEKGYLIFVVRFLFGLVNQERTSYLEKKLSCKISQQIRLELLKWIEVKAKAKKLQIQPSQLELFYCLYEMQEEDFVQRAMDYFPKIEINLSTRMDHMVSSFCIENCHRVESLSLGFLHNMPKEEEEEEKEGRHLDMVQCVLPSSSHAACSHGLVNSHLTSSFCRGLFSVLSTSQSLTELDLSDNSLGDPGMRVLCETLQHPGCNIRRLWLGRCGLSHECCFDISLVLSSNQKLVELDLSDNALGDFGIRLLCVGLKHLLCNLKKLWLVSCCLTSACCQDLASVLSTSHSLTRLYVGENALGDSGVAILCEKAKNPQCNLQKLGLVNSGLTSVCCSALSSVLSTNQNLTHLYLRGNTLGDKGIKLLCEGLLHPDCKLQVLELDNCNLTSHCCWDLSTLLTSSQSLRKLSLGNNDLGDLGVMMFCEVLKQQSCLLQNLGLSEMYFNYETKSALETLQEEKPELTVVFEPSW

In the case of `CC(C)c1cccc(C(C)C)c1NC(=O)NS(=O)(=O)c1cc(C(=O)N2CCC2)n(C)n1` [Example 151, 5-(Azetidine-1-carbonyl)-N-((2,6-diisopropylphenyl)carbamoyl)-1-methyl-1H-pyrazole-3-sulfonamide], the values for the IC50 in test [1] (setting [3]) and in test [2] (setting [4]) were under 400 nM and under 640 nM, respectively.

Consider `CN(C(=O)c1cc(S(=O)(=O)NC(=O)Nc2c3c(cc4c2CCC4)CCC3)nn1C)C1CC1` [Example 152, N-Cyclopropyl-3-(N-((1,2,3,5,6,7-hexahydro-s-indacen-4-yl)carbamoyl)sulfamoyl)-N,1-dimethyl-1H-pyrazole-5-carboxamide], for which the results for the IC50 in test [1] (setting [3]) and in test [2] (setting [4]) were under 800 nM and under 160 nM, respectively.

As to `CN(CC#N)C(=O)c1cc(S(=O)(=O)NC(=O)Nc2c3c(cc4c2CCC4)CCC3)nn1C` [Example 153, N-(Cyanomethyl)-3-(N-((1,2,3,5,6,7-hexahydro-s-indacen-4-yl)carbamoyl)sulfamoyl)-N,1-dimethyl-1H-pyrazole-5-carboxamide, partial ammonium salt], the IC50 is under 1600 nM in test [1] (setting [3]) and under 640 nM in test [2] (setting [4]).

Take `Cn1nc(S(=O)(=O)NC(=O)Nc2c3c(cc4c2CCC4)CCC3)cc1C(=O)N1CCC1` [Example 154, 5-(Azetidine-1-carbonyl)-N-((1,2,3,5,6,7-hexahydro-s-indacen-4-yl)carbamoyl)-1-methyl-1H-pyrazole-3-sulfonamide]: the values for the IC50 in test [1] (setting [3]) and in test [2] (setting [4]) were under 3200 nM and under 160 nM, respectively.

For `CNC(=O)c1cc(S(=O)(=O)NC(=O)Nc2c(C(C)C)cccc2C(C)C)nn1C` [Example 155, 3-(N-((2,6-Diisopropylphenyl)carbamoyl)sulfamoyl)-N,1-dimethyl-1H-pyrazole-5-carboxamide], the IC50 in test [1] (setting [3]) was under 800 nM; in test [2] (setting [4]) it was under 640 nM.

`CCN(C)C(=O)c1cc(S(=O)(=O)NC(=O)Nc2c(C(C)C)cccc2C(C)C)nn1C` [Example 156, 3-(N-((2,6-Diisopropylphenyl)carbamoyl)sulfamoyl)-N-ethyl-N,1-dimethyl-1H-pyrazole-5-carboxamide]: the IC50 was under 3200 nM in test [1] (setting [3]) and under 2560 nM in test [2] (setting [4]).

In the case of `CC(C)c1cccc(C(C)C)c1NC(=O)NS(=O)(=O)c1cc(C(=O)N(C)C(C)C)n(C)n1` [Example 158, 3-(N-((2,6-Diisopropylphenyl)carbamoyl)sulfamoyl)-N-isopropyl-N,1-dimethyl-1H-pyrazole-5-carboxamide], the IC50 was under 800 nM in test [1] (setting [3]) and under 640 nM in test [2] (setting [4]).

As to `CC(C)N(C)C(=O)c1cc(S(=O)(=O)NC(=O)Nc2c3c(cc4c2CCC4)CCC3)nn1C` [Example 164, 3-(N-((1,2,3,5,6,7-Hexahydro-s-indacen-4-yl)carbamoyl)sulfamoyl)-N-isopropyl-N,1-dimethyl-1H-pyrazole-5-carboxamide], the IC50 is under 3200 nM in test [1] (setting [3]) and under 160 nM in test [2] (setting [4]).

Consider `CCN(CC)C(=O)c1cc(S(=O)(=O)NC(=O)Nc2c3c(cc4c2CCC4)CCC3)nn1C` [Example 165, N,N-diethyl-3-(N-((1,2,3,5,6,7-Hexahydro-s-indacen-4-yl)carbamoyl)sulfamoyl)-1-methyl-1H-pyrazole-5-carboxamide], for which the IC50 is under 1600 nM in test [1] (setting [3]) and under 160 nM in test [2] (setting [4]).

As to `CN(C)Cc1c(S(=O)(=O)NC(=O)Nc2c3c(cc4c2CCC4)CCC3)ncn1C` [Example 171, 5-((Dimethylamino)methyl)-N-((1,2,3,5,6,7-hexahydro-s-indacen-4-yl)carbamoyl)-1-methyl-1H-imidazole-4-sulfonamide], the IC50 in test [1] (setting [3]) is under 1600 nM; in test [2] (setting [4]), under 640 nM.

Turning to `CC(C)c1cc(Cl)cc(C(C)C)c1NC(=O)NS(=O)(=O)c1cc(C(=O)N(C)CCO)n(C)n1` [Example 172, 3-(N-((4-Chloro-2,6-diisopropylphenyl)carbamoyl)sulfamoyl)-N-(2-hydroxyethyl)-N,1-dimethyl-1H-pyrazole-5-carboxamide], the figures for the IC50 in test [1] and in test [2] were under 1600 nM and under 160 nM, respectively.

Regarding `COc1cc(-c2ccc3c(c2NC(=O)NS(=O)(=O)c2ccn(C(C)(C)CN(C)C)n2)CCC3)ccn1` [Example 178, 1-(1-(Dimethylamino)-2-methylpropan-2-yl)-N-((5-(2-methoxypyridin-4-yl)-2,3-dihydro-1H-inden-4-yl)carbamoyl)-1H-pyrazole-3-sulfonamide], the IC50 in test [1] (setting [3]) was under 400 nM; in test [2] (setting [4]) it was under 40 nM.

As to `CN(C)CCn1ccc(S(=O)(=O)NC(=O)Nc2c3c(cc4c2CCC4)CC=C3)n1` [Example 181, 1-(2-(Dimethylamino)ethyl)-N-((1,2,3,7-tetrahydro-s-indacen-4-yl)carbamoyl)-1H-pyrazole-3-sulfonamide, potassium salt], the IC50 in test [1] (setting [3]) is under 800 nM; in test [2] (setting [4]), under 160 nM.

Regarding `CN(C)CC(C)(C)n1cc(S(=O)(=O)NC(=O)Nc2c3c(cc4c2CCC4)CCC3)cn1` [Example 183, 1-(1-(Dimethylamino)-2-methylpropan-2-yl)-N-((1,2,3,5,6,7-hexahydro-s-indacen-4-yl)carbamoyl)-1H-pyrazole-4-sulfonamide], the IC50 in test [1] (setting [3]) is under 1600 nM; in test [2] (setting [4]) it was under 160 nM.

Regarding `CC(C)(C#N)n1ccc(S(=O)(=O)NC(=O)Nc2c(-c3ccnc(OC(F)F)c3)ccc3c2CCO3)n1` [Example 189, 1-(2-Cyanopropan-2-yl)-N-((5-(2-(difluoromethoxy)pyridin-4-yl)-2,3-dihydrobenzofuran-4-yl)carbamoyl)-1H-pyrazole-3-sulfonamide], the results for the IC50 in test [1] (setting [3]) and in test [2] (setting [4]) were under 400 nM and under 160 nM, respectively.

As for `COc1cc(-c2ccc3c(c2NC(=O)NS(=O)(=O)c2ccn(C(C)(C)C#N)n2)CCO3)ccn1` [Example 190, 1-(2-Cyanopropan-2-yl)-N-((5-(2-methoxypyridin-4-yl)-2,3-dihydrobenzofuran-4-yl)carbamoyl)-1H-pyrazole-3-sulfonamide], the IC50 in test [1] (setting [3]) is under 400 nM; in test [2] (setting [4]), under 160 nM.

On to `CNCC(C)(C)n1ccc(S(=O)(=O)NC(=O)Nc2c(-c3ccnc(OC)c3)ccc3c2CCC3)n1` [Example 191, N-((5-(2-Methoxypyridin-4-yl)-2,3-dihydro-1H-inden-4-yl)carbamoyl)-1-(2-methyl-1-(methylamino)propan-2-yl)-1H-pyrazole-3-sulfonamide, sodium salt], for which the IC50 in test [1] (setting [3]) is under 400 nM; in test [2] (setting [4]), under 40 nM.

As to `CN(C)CC(C)(C)n1ccc(S(=O)(=O)NC(=O)Nc2c(-c3ccnc(OC4CC4)c3)ccc3c2CCO3)n1` [Example 192, N-((5-(2-Cyclopropoxypyridin-4-yl)-2,3-dihydrobenzofuran-4-yl)carbamoyl)-1-(1-(dimethylamino)-2-methylpropan-2-yl)-1H-pyrazole-3-sulfonamide, sodium salt], the IC50 in test [1] (setting [3]) was under 400 nM; in test [2] (setting [4]), under 160 nM.

Take `COc1cc(-c2ccc3c(c2NC(=O)NS(=O)(=O)c2ccn(C4CCN(C)C4)n2)CCC3)ccn1` (stereo not shown) [Example 193, N-((5-(2-Methoxypyridin-4-yl)-2,3-dihydro-1H-inden-4-yl)carbamoyl)-1-(1-methylpyrrolidin-3-yl)-1H-pyrazole-3-sulfonamide, sodium salt]: the values for the IC50 in test [1] (setting [3]) and in test [2] (setting [4]) were under 400 nM and under 40 nM, respectively.

`CN(C)CC(C)(C)n1ccc(S(=O)(=O)NC(=O)Nc2c(-c3ccnc(OC4CC4)c3)ccc3c2CCC3)n1` [Example 194, N-((5-(2-Cyclopropoxypyridin-4-yl)-2,3-dihydro-1H-inden-4-yl)carbamoyl)-1-(1-(dimethylamino)-2-methylpropan-2-yl)-1H-pyrazole-3-sulfonamide, sodium salt]: the half-maximal inhibitory concentration (IC50) in test [1] (setting [3]) is under 400 nM; in test [2] (setting [4]), under 40 nM.

The values are drawn from patent US11613542B2, “Sulfonylureas and sulfonylthioureas as NLRP3 inhibitors” (Inflazome Limited, priority 2017, dated 2023).
